Reference: ChEMBL document CHEMBL5523727, “Discovery of KT-413, a Targeted Protein Degrader of IRAK4 and IMiD Substrates Targeting MYD88 Mutant Diffuse Large B-Cell Lymphoma” (J Med Chem, 2024)

What was measured:
[1] = biological target: Protein cereblon/Interleukin-1 receptor-associated kinase 4 (Homo sapiens, UniProt Q9NWZ3+Q96SW2); test: PROTAC activity at CRBN/IRAK4 in human OCI-Ly10 cells assessed as induction of IRAK4 degradation measured after 24 hrs by MSD assay; type: cell-based
[2] = biological target: Cereblon/Ikaros (Homo sapiens, UniProt Q96SW2+Q13422); test: PROTAC activity at CRBN/Ikaros in human OCI-Ly10 cells assessed as induction of Ikaros degradation measured after 24 hrs by MSD assay; type: cell-based
[3] = Metabolic stability in rat liver microsomes assessed as intrinsic clearance at 1 uM measured upto 60 mins in presence of NADPH by UPLC/MS-MS analysis; type: ADME, Microsome; details: read-out: CLH
[4] = biological target: Protein cereblon/Interleukin-1 receptor-associated kinase 4 (Homo sapiens, UniProt Q96SW2+Q9NWZ3); test: Binding affinity to CRBN/IRAK4 […] assessed as dissociation constant by DiscoverX Kd Elect assay
[5] = biological target: Protein cereblon (Homo sapiens, UniProt Q96SW2); test: Binding affinity to CRBN (unknown origin) by HTRF assay
[6] = Passive permeability of the compound in wild type MDCK cells across apical to basolateral side at 1 uM measured for 120 mins by LC-MS/MS analysis; type: ADME, cell-based, Canis lupus familiaris; details: dog, read-out: permeability
[7] = Metabolic stability in human liver microsomes assessed as intrinsic clearance at 1 uM measured upto 60 mins in presence of NADPH by UPLC/MS-MS analysis; type: ADME, Microsome; details: read-out: CLH
[8] = tested on: OCI-Ly10; test: Antiproliferative activity against human OCI-Ly10 cells measured after 4 days by CellTiter-Glo Luminescent Cell Viability Assay; type: functional, cell-based

Chain of Cereblon/Ikaros (Q96SW2 whole entry): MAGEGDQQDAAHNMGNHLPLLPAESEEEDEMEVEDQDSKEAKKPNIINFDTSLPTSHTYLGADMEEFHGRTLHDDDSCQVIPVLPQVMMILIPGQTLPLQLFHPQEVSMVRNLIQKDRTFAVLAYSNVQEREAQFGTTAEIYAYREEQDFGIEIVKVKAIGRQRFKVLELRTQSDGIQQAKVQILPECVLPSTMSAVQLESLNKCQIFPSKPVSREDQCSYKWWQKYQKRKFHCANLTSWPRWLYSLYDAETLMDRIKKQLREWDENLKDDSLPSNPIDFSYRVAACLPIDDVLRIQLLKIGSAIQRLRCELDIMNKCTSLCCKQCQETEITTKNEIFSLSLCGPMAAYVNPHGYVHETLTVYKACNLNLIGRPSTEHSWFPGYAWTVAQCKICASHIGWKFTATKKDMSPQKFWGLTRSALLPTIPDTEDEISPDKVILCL
Chain of Cereblon/Ikaros (Q13422 whole entry): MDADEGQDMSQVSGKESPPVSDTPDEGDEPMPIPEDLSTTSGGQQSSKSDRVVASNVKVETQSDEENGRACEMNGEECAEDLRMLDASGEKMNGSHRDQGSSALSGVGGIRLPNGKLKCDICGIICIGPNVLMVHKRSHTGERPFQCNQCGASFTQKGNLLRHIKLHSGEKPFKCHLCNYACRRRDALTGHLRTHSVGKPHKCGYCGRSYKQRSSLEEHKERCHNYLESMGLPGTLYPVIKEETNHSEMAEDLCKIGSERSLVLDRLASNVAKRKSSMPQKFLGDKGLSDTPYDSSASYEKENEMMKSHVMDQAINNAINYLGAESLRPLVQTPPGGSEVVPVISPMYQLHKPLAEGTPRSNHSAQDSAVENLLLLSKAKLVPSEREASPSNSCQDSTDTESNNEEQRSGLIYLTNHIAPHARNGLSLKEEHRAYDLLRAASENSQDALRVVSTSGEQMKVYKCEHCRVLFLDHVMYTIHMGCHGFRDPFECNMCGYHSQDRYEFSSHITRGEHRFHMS
Chain of Protein cereblon (Q96SW2 whole entry): as the sequence (Q96SW2 whole entry) above
Chain of Protein cereblon/Interleukin-1 receptor-associated kinase 4 (Homo sapiens, UniProt Q96SW2+Q9NWZ3) (Q9NWZ3 whole entry): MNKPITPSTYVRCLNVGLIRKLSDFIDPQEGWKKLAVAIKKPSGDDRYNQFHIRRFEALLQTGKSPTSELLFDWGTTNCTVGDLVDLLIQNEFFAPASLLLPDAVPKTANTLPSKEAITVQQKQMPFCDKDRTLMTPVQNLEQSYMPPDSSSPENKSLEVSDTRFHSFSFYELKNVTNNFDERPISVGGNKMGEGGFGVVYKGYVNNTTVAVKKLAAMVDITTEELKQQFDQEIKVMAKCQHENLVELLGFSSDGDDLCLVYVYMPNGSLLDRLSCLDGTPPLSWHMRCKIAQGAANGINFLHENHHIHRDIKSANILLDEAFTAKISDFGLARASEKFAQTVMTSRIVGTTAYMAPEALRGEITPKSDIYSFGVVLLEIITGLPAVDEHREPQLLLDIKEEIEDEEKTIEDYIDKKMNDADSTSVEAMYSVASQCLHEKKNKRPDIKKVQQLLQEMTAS
Chain of Protein cereblon/Interleukin-1 receptor-associated kinase 4 (Homo sapiens, UniProt Q96SW2+Q9NWZ3) (Q96SW2 whole entry): as the sequence (Q96SW2 whole entry) above
Chain of Protein cereblon/Interleukin-1 receptor-associated kinase 4 (Homo sapiens, UniProt Q9NWZ3+Q96SW2) (Q9NWZ3 whole entry): as the sequence (Q9NWZ3 whole entry) above
Chain of Protein cereblon/Interleukin-1 receptor-associated kinase 4 (Homo sapiens, UniProt Q9NWZ3+Q96SW2) (Q96SW2 whole entry): as the sequence (Q96SW2 whole entry) above

Structure (SMILES)	DC50 [1]	DC50 [2]	microsomal CLint at 1 µM [3]	Kd [4]	IC50 [5]	Papp A→B at 2 h, 1 µM [6]	microsomal CLint at 1 µM [7]	IC50 ([8]; Homo sapiens, OCI-Ly10, 96 h)	IC50 ([8]; oci-ly10)
CN(CCCN(C)c1cccc2c1C(=O)N(C1CCC(=O)NC1=O)C2=O)C[C@H]1CC[C@H](n2cc3cc(NC(=O)c4cccc(C(F)(F)F)n4)c(C(C)(C)O)cc3n2)CC1 (stereo partly drawn)	14 nM	282 nM	250 µL/min/mg	0.64 nM	200 nM	4.2 ×10⁻⁶ cm/s	300 µL/min/mg	308 nM	
CN(CCCO[C@H]1C[C@@H](Nc2cccc3c2C(=O)N(C2CCC(=O)NC2=O)C3=O)C1)C[C@H]1CC[C@H](n2cc3cc(NC(=O)c4cccc(C(F)(F)F)n4)c(C(C)(C)O)cc3n2)CC1 (stereo partly drawn)	43 nM	10 nM	16 µL/min/mg	0.34 nM	75 nM	2.8 ×10⁻⁶ cm/s	26 µL/min/mg	166 nM	
CC(C)(O)c1cc2nn(CCCCCNCCCNc3cccc4c3C(=O)N(C3CCC(=O)NC3=O)C4=O)cc2cc1NC(=O)c1cccc(C(F)(F)F)n1 (stereo not drawn)	128 nM	17 nM		2.2 nM	79 nM	0.42 ×10⁻⁶ cm/s		125 nM	
CN(CCCNc1cccc2c1C(=O)N(C1CCC(=O)NC1=O)C2=O)C[C@H]1CC[C@H](n2cc3cc(NC(=O)c4cccc(C(F)(F)F)n4)c(C(C)(C)O)cc3n2)CC1 (stereo partly drawn)	36 nM	10 nM	138 µL/min/mg	0.38 nM	62 nM	0.66 ×10⁻⁶ cm/s	140 µL/min/mg	120 nM	
Nc1cccc2c1C(=O)N(C1CCC(=O)NC1=O)C2=O (stereo not drawn) [POMALIDOMIDE]								1400 nM	
CN(CCCO[C@H]1C[C@H](Nc2cccc3c2C(=O)N(C2CCC(=O)NC2=O)C3=O)C1)C[C@H]1CC[C@H](n2cc3cc(NC(=O)c4cccc(C(F)(F)F)n4)ccc3n2)CC1 (stereo partly drawn)	33 nM	10 nM	11 µL/min/mg		24 nM	5.5 ×10⁻⁶ cm/s	102 µL/min/mg	75 nM	
CN(C[C@H]1CC[C@H](n2cc3cc(NC(=O)c4cccc(C(F)(F)F)n4)c(C(C)(C)O)cc3n2)CC1)[C@H]1CC[C@]2(CC1)C[C@H](Nc1cccc3c1C(=O)N(C1CCC(=O)NC1=O)C3=O)C2 (stereo partly drawn)	6 nM	57 nM	< 1.8 µL/min/mg		8 nM	2.1 ×10⁻⁶ cm/s	< 1.8 µL/min/mg	78 nM	
CN(CCCO[C@H]1C[C@H](Nc2cccc3c2C(=O)N(C2CCC(=O)NC2=O)C3=O)C1)C[C@H]1CC[C@H](n2cc3cc(NC(=O)c4cccc(C(F)(F)F)n4)c(C(F)F)cc3n2)CC1 (stereo partly drawn)	13 nM	17 nM	32 µL/min/mg		24 nM	0.76 ×10⁻⁶ cm/s	25 µL/min/mg	46 nM	
CC(C)(O)c1cc2nn([C@H]3CC[C@H](CO)CC3)cc2cc1NC(=O)c1cccc(C(F)(F)F)n1				0.37 nM					
CN(C[C@H]1CC[C@H](n2cc3cc(NC(=O)c4cccc(C(F)(F)F)n4)c(C(C)(C)O)cc3n2)CC1)[C@H]1CC[C@@]2(CC1)C[C@H](Nc1cccc3c1C(=O)N(C1CCC(=O)NC1=O)C3=O)C2 (stereo partly drawn)	13 nM	19 nM	< 1.8 µL/min/mg		5 nM	2.9 ×10⁻⁶ cm/s	< 1.8 µL/min/mg		134 nM
COc1cc2nn([C@H]3CC[C@H](CN(C)CCCO[C@H]4C[C@H](Nc5cccc6c5C(=O)N(C5CCC(=O)NC5=O)C6=O)C4)CC3)cc2cc1NC(=O)c1cccc(C(F)(F)F)n1 (stereo partly drawn)	29 nM	28 nM	10 µL/min/mg		23 nM	2.4 ×10⁻⁶ cm/s	19 µL/min/mg	360 nM	
CC(C)(O)c1cc2nn(-c3ccc(CO)cc3)cc2cc1NC(=O)c1cccc(C(F)(F)F)n1				3.5 nM					
CC(C)(O)c1cc2nn(CCCCCCCCCNc3cccc4c3C(=O)N(C3CCC(=O)NC3=O)C4=O)cc2cc1NC(=O)c1cccc(C(F)(F)F)n1 (stereo not drawn)	3300 nM	55 nM		320 nM	> 1100 nM			588 nM	
